Data on 1 compound can be found in US20190388428A1, “A Pharmaceutical Composition Comprising An Oxazine Derivative And Its Use In The Treatment Or Prevention Of Alzheimer's Disease” (NOVARTIS AG, priority 2017, published 2019).

A short description of data set [1]: Chemical stability of crystalline Compound 1 at high temperature/humidity (UPLC purity). It is filed as physicochemical. The note with it: for Purity/%: crystalline material. An excerpt: After storage at high temperature and/or humidity, bulk crystalline material was sampled and dissolved in acetonitrile:water (80:20) and the purity analysed in a Waters Aquity UPLC using the following conditions: […]

Data set [2] in a line: Physical properties of the drug substance (solubility, hygroscopicity, wettability). Type of data set: physicochemical.
The nature of data set [3]: Drug-drug interaction study with strong CYP3A4 inhibitor itraconazole in healthy volunteers. It is filed as in vivo, human. The note with it: with itraconazole 200 mg q.d. vs Compound 1 alone. The text has this: (§1) The DDI study design is outlined in FIG. 10.
(§2) An ANOVA model with fixed effects for treatment and subject was fitted to each log-transformed PK parameter. Results were back transformed to obtain ‘Adjusted geo-mean’, ‘Geo-mean ratio’ and ‘90% Cl’.

The nature of data set [4]: Drug-drug interaction study with strong CYP3A4 inducer rifampicin in healthy volunteers. It is filed as in vivo, human. The note with it: with rifampicin 600 mg q.d. vs Compound 1 alone.
Excerpt: as §1, §2

Data set [5] is described as follows: Off-target binding or activity (background statement).

Turning to `C[C@@]1(c2nc(NC(=O)c3ncc(C(F)(F)F)cc3Cl)ccc2F)CO[C@@](C)(C(F)(F)F)C(N)=N1` [Compound 1, N-(6-((3R,6R)-5-amino-3,6-dimethyl-6-(trifluoromethyl)-3,6-dihydro-2H-1,4-oxazin-3-yl)-5-fluoropyridin-2-yl)-3-chloro-5-(trifluoromethyl)picolinamide], in data set [1] (50° C./75% RH, 3 weeks), the “Solid State Form” value was “Crystalline” and the Purity/% is listed as 96.8%. In data set [1] (50° C., 4 weeks), the “Solid State Form” value is given as “Crystalline” and the Purity/% turned out to be 97.3%. In data set [1] (80° C., 3 weeks), the “Solid State Form” value is “Crystalline” and the Purity/% is listed as 97.3%. Further, in data set [1] (RT, 0 (initial)), the “Solid State Form” value is recorded as “Crystalline” and the Purity/% is given as 97.3%. Besides, in data set [2], the “hygroscopicity” value is listed as “non-hygroscopic” and the “wettability” value was “poorly wettable”. Besides, the “solubility in water” value in data set [2] (water) is recorded as “poorly soluble”. In data set [3], the “increase of mean AUC” value was 2-3 fold and the “increase of mean Cmax” value is 25%. Further, in data set [4], the “decrease of mean AUC” value is given as 5-6 fold and the “decrease of mean Cmax” value was determined as 2.5 fold. Also, the “off-target binding or activity” value in data set [5] is on record as “no relevant off-target binding or activity”.
